From patent publication US20260007758A1, “SO[…]-2 RECEPTOR (SST2R) NON-PEPTIDE DRUG CONJUGATES AND USES THEREOF” (Crinetics Pharmaceuticals, Inc., priority 2024, published 2026)
pEC50: −log10 of the molar value.

Tests used:
Format in all cases: cell-based
[1] = target: T1, human somatostatin receptor subtype 2 (Homo sapiens, UniProt P30874); experiment: Functional assay for SSTR2 agonists (HTRF cAMP); conditions: CHO-K1 cells stably expressing human SST2; NKH477-stimulated cAMP; 20 min at 37 C; read-out: hSST2 cAMP Avg EC50
T1 construct: expressed in transfected cells
In short: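 Agonist activity read as fall in intracellular cAMP: HTRF 665/620 nm ratio regressed to a cAMP standard curve, EC50 fitted. Stable human SSTR2 CHO-K1 cells exposed 20 min at 37 °C to compound, final concentrations typically 0-10,000 nM.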

SST2 = target: T2, SST2 (Homo sapiens, UniProt P30874); experiment: PathHunter CHO-K1 SST2 Internalization Assay; conditions: PathHunter CHO-K1 SST2 cells; 90 min at 37 C; luminescence; read-out: Internalization EC50
T2 construct: host or cells: PathHunter CHO-K1 SST2 cells
In short: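 Four-parameter nonlinear fits of background-corrected luminescence (duplicate means) gave IC50s. NDCs were serially diluted 1:3 over 11 points from a 10 uM final top concentration and incubated 90 min at 37 C with human SST2 CHO-K1 cells plated 48 h earlier at 2500/well. Beta-Glo read-out developed 60 min at RT.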

[2] = system: NCI-H524 human small cell lung cancer cells; experiment: H524 assay: inhibition of cell proliferation (CellTiter Glo); conditions: 2 h treatment, washout, additional 70 h incubation
In short: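 Proliferation was measured by CellTiter Glo 70 h after a washout that followed a 2 h pulse of NDC. Doses were an 11-point, two-fold dilution series from 1 uM. IC50 was fitted with a four-parameter model to luminescence-based % inhibition relative to control cells.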

T1 sequence (P30874 whole entry): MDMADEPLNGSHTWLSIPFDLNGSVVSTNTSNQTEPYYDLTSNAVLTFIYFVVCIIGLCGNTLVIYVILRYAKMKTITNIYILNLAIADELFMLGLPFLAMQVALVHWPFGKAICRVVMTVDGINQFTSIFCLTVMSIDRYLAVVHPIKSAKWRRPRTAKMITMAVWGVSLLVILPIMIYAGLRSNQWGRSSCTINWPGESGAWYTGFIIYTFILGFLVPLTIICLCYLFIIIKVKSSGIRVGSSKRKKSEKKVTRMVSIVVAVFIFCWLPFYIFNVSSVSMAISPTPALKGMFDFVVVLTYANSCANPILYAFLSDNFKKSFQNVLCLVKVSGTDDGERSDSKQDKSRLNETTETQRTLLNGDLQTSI
T2 sequence (P30874 whole entry): as above

SMILES | pEC50 [1] | pEC50 (SST2) | pEC50 [2]
CC[C@H](C)[C@@H]([C@@H](CC(=O)N1CCC[C@H]1[C@H](OC)[C@@H](C)C(=O)N[C@H](C)[C@@H](O)c1ccccc1)OC)N(C)C(=O)[C@@H](NC(=O)[C@H](C(C)C)N(C)C(=O)OCc1ccc(NC(=O)[C@H](C)NC(=O)[C@@H](NC(=O)CCOCCC(=O)NCCNc2ncc(-c3cc(C)cc(F)c3)c(N3CCC(N)CC3)c2-c2nc3cc(F)c(F)cc3[nH]2)C(C)C)c(O[C@@H]2O[C@H](C(=O)O)[C@@H](O)[C@H](O)[C@H]2O)c1)C(C)C [Compound 108] | 9.74 | 8.09 | 7.28
CC[C@H](C)[C@@H]([C@@H](CC(=O)N1CCC[C@H]1[C@H](OC)[C@@H](C)C(=O)N[C@H](C)[C@@H](O)c1ccccc1)OC)N(C)C(=O)[C@@H](NC(=O)[C@H](C(C)C)N(C)C(=O)OCc1ccc(NC(=O)[C@H](C)NC(=O)[C@@H](NC(=O)CCOCCC(=O)NCCNc2ncc(-c3cc(C)cc(F)c3)c(N3CCC(N)CC3)c2-c2nc3c(F)c(F)ccc3[nH]2)C(C)C)c(O[C@@H]2O[C@H](C(=O)O)[C@@H](O)[C@H](O)[C@H]2O)c1)C(C)C [Compound 109] | 8.96 | 7.46 | 6.70
CC[C@H](C)[C@@H]([C@@H](CC(=O)N1CCC[C@H]1[C@H](OC)[C@@H](C)C(=O)N[C@H](C)[C@@H](O)c1ccccc1)OC)N(C)C(=O)[C@@H](NC(=O)[C@H](C(C)C)N(C)C(=O)OCc1ccc(NC(=O)[C@H](CCCNC(N)=O)NC(=O)[C@@H](NC(=O)CCOCCC(=O)NCCNc2ncc(-c3cc(C)cc(F)c3)c(N3CCC(N)CC3)c2-c2nc3c(F)c(F)ccc3[nH]2)C(C)C)c(O[C@@H]2O[C@H](C(=O)O)[C@@H](O)[C@H](O)[C@H]2O)c1)C(C)C [Compound 110] | 9.00 | 7.64 | 6.92
CC[C@H](C)[C@@H]([C@@H](CC(=O)N1CCC[C@H]1[C@H](OC)[C@@H](C)C(=O)N[C@H](C)[C@@H](O)c1ccccc1)OC)N(C)C(=O)[C@@H](NC(=O)[C@H](C(C)C)N(C)C(=O)OCc1ccc(NC(=O)[C@H](C)NC(=O)[C@@H](NC(=O)CN(C)C(=O)CCOCCC(=O)NCCNc2ncc(-c3cc(C)cc(F)c3)c(N3CCC(N)CC3)c2-c2nc3ccc(Cl)cc3[nH]2)C(C)C)c(O[C@@H]2O[C@H](C(=O)O)[C@@H](O)[C@H](O)[C@H]2O)c1)C(C)C [Compound 111] | 10.34 | 8.06 | 7.72
CC[C@H](C)[C@@H]([C@@H](CC(=O)N1CCC[C@H]1[C@H](OC)[C@@H](C)C(=O)N[C@H](C)[C@@H](O)c1ccccc1)OC)N(C)C(=O)[C@@H](NC(=O)[C@H](C(C)C)N(C)C(=O)OCc1ccc(NC(=O)[C@H](C)NC(=O)[C@@H](NC(=O)CCOCCOCCOCCOCCC(=O)NCCNc2ncc(-c3cc(C)cc(F)c3)c(N3CCC(N)CC3)c2-c2cc3ccc(Cl)cc3[nH]2)C(C)C)c(O[C@@H]2O[C@H](C(=O)O)[C@@H](O)[C@H](O)[C@H]2O)c1)C(C)C [Compound 112] | 9.92 | 8.08 | 8.00
CC[C@H](C)[C@@H]([C@@H](CC(=O)N1CCC[C@H]1[C@H](OC)[C@@H](C)C(=O)N[C@H](C)[C@@H](O)c1ccccc1)OC)N(C)C(=O)[C@@H](NC(=O)[C@H](C(C)C)N(C)C(=O)OCc1ccc(NC(=O)[C@H](C)NC(=O)[C@@H](NC(=O)CCOCCC(=O)NCCNc2ncc(-c3cc(C)cc(F)c3)c(N3CC[C@H]4NCCO[C@@H]4C3)c2-c2nc3ccc(Cl)cc3[nH]2)C(C)C)c(O[C@@H]2O[C@H](C(=O)O)[C@@H](O)[C@H](O)[C@H]2O)c1)C(C)C [Compound 113] | 6.96 | 5.89 | 5.70
CC[C@H](C)[C@@H]([C@@H](CC(=O)N1CCC[C@H]1[C@H](OC)[C@@H](C)C(=O)N[C@H](C)[C@@H](O)c1ccccc1)OC)N(C)C(=O)[C@@H](NC(=O)[C@H](C(C)C)N(C)C(=O)OCc1ccc(NC(=O)[C@H](C)NC(=O)[C@@H](NC(=O)CCOCCC(=O)NCCNc2ncc(-c3cc(C)cc(F)c3)c(N3CC[C@H]4NCCO[C@@H]4C3)c2-c2nc3c(F)cc(F)cc3[nH]2)C(C)C)c(O[C@@H]2O[C@H](C(=O)O)[C@@H](O)[C@H](O)[C@H]2O)c1)C(C)C [Compound 114] | 7.07 | 6.07 | 5.34
CC[C@H](C)[C@@H]([C@@H](CC(=O)N1CCC[C@H]1[C@H](OC)[C@@H](C)C(=O)N[C@H](C)[C@@H](O)c1ccccc1)OC)N(C)C(=O)[C@@H](NC(=O)[C@H](C(C)C)N(C)C(=O)OCc1ccc(NC(=O)[C@H](C)NC(=O)[C@@H](NC(=O)CCOCCC(=O)NCCNc2ncc(-c3cc(C)cc(F)c3)c(N3CCC(N)CC3)c2-c2cc3ccc(Cl)cc3[nH]2)C(C)C)c(O[C@@H]2O[C@H](C(=O)O)[C@@H](O)[C@H](O)[C@H]2O)c1)C(C)C [Compound 115] | 10.12 | 8.23 | 8.29
CC[C@H](C)[C@@H]([C@@H](CC(=O)N1CCC[C@H]1[C@H](OC)[C@@H](C)C(=O)N[C@H](C)[C@@H](O)c1ccccc1)OC)N(C)C(=O)[C@@H](NC(=O)[C@H](C(C)C)N(C)C(=O)OCc1ccc(NC(=O)[C@H](C)NC(=O)[C@@H](NC(=O)CCOCCC(=O)NCCNc2ncc(-c3cc(C)cc(F)c3)c(N3CCC(N)CC3)c2-c2cc3ccc(F)cc3[nH]2)C(C)C)c(O[C@@H]2O[C@H](C(=O)O)[C@@H](O)[C@H](O)[C@H]2O)c1)C(C)C [Compound 116] | 9.72 | 7.85 | 7.68
CC[C@H](C)[C@@H]([C@@H](CC(=O)N1CCC[C@H]1[C@H](OC)[C@@H](C)C(=O)N[C@H](C)[C@@H](O)c1ccccc1)OC)N(C)C(=O)[C@@H](NC(=O)[C@H](C(C)C)N(C)C(=O)OCc1ccc(NC(=O)[C@H](C)NC(=O)[C@@H](NC(=O)CCOCCC(=O)NCCNc2ncc(-c3cc(C)cc(F)c3)c(N3CCC(N)CC3)c2-c2cc3ccc(OC)cc3[nH]2)C(C)C)c(O[C@@H]2O[C@H](C(=O)O)[C@@H](O)[C@H](O)[C@H]2O)c1)C(C)C [Compound 117] | 9.34 | 7.72 | 7.24
CC[C@H](C)[C@@H]([C@@H](CC(=O)N1CCC[C@H]1[C@H](OC)[C@@H](C)C(=O)N[C@H](C)[C@@H](O)c1ccccc1)OC)N(C)C(=O)[C@@H](NC(=O)[C@H](C(C)C)N(C)C(=O)OCc1ccc(NC(=O)[C@H](CCCNC(N)=O)NC(=O)[C@@H](NC(=O)CN(C)C(=O)CCOCCC(=O)NCCNc2ncc(-c3cc(C)cc(F)c3)c(N3CCC(N)CC3)c2-c2nc3ccc(Cl)cc3[nH]2)C(C)C)c(O[C@@H]2O[C@H](C(=O)O)[C@@H](O)[C@H](O)[C@H]2O)c1)C(C)C [Compound 118] | 9.62 | 8.03 | 7.66
CC[C@H](C)[C@@H]([C@@H](CC(=O)N1CCC[C@H]1[C@H](OC)[C@@H](C)C(=O)N[C@H](C)[C@@H](O)c1ccccc1)OC)N(C)C(=O)[C@@H](NC(=O)[C@H](C(C)C)N(C)C(=O)OCc1ccc(NC(=O)[C@H](C)NC(=O)[C@@H](NC(=O)CCOCCC(=O)NCCNc2ncc(-c3cc(C)cc(F)c3)c(N3CCC(N)CC3)c2-c2cc3ccc(C#N)cc3[nH]2)C(C)C)c(O[C@@H]2O[C@H](C(=O)O)[C@@H](O)[C@H](O)[C@H]2O)c1)C(C)C [Compound 119] | 9.96 | 7.96 | 7.47
